Data on one compound can be found in US20080008745A1, “Transdermal delivery of naltrexone hydrochloride, naltrexol hydrochloride, and bis(hydroxy-methyl)propionyl-3-0 ester naltrexone using microneedles” (UNIVERSITY OF KENTUCKY RESEARCH FOUNDATION, priority 2006, published 2008).

Data set [1] is described as follows: Solubility in 3:1 PG:Hanks' buffer. It counts as physicochemical. As for the experimental part: An excess of Naltrexone HCl (˜350 mg) was added to 1 mL of 3:1 PG:Hanks' buffer. The saturated solution was then vortexed for 1 min, sonicated for 15 min, and placed in an incubator at 32° C. for 24 h while shaking on a belly shaker. Just before filtering, a glass syringe and 0.45 μm filter were heated in an incubator to 32° C. The solution was filtered and diluted with ACN for high pressure liquid chromatography (HPLC) analysis.

The nature of data set [2]: In vitro skin diffusion study, flow-through diffusion cell, guinea pig skin. As for the experimental part:
Hairless guinea pig skin was harvested from euthanitized animals. Animal studies were approved by the University of Kentucky IACUC. Human skin harvested during abdominoplasty was used for the diffusion studies. Human tissue use was approved by the University of Kentucky Institutional Review Board. Skin sections were obtained by removing the subcutaneous fatty tissue by scalpel dissection and stored at −20° C. A PermeGear flow-through (In-Line, Riegelsville, Pa.) diffusion cell system was used for the skin permeation studies. Skin used for microneedle treatment was placed on a wafer of polydimethylsiloxane polymer, which mimicked the underlying resistance of tissue. The skin was poked 20 times with an array containing 5 MN before mounting the skin in the diffusion cell. Untreated skin samples were simply placed in the diffusion cells. Diffusion cells were kept at 32° C. with a circulating water bath. Data was collected by using skin from a single donor with three cells for untreated formulations and three to four cells for the MN treated formulations. The receiver solution was HEPES-buffered Hanks' balanced salts with gentamicin at pH 7.4, and the flow rate was adjusted to 1.1 mL/h. Each cell was charged with 0.25 mL of the respective drug solution. […] All samples were stored at 4° C. until processed by solid phase extraction.
The cumulative quantity of drug collected in the receiver compartment was plotted as a function of time. The flux value for a given experiment was obtained from the slope of the steady state portion of the cumulative amount of drug permeated, plotted over time. Apparent permeability coefficient values were calculated from Fick's First Law of diffusion: [formula]
Sink conditions were maintained in the receiver solution for the duration of the experiment, so ΔC was approximated by the drug concentration in the donor compartment.
The HPLC analysis was performed as described by Vaddi et al., Pharm. Res. 22 (2005) 758-765. The HPLC system consisted of a Waters 717plus autosampler, a Waters 1525 Binary HPLC pump, and a Waters 2487 Dual λ Absorbance detector with Waters Breeze software. A Brownlee C-18 reversed-phase Spheri-5 μm column (220×4.6 mm) with a C-18 reversed phase 7 μm guard column (15×3.2 mm) was used with the UV detector set at a wavelength of 215 nm. […] The mobile phase for Naltrexol consisted of 90:10 ACN:0.1% TFA adjusted to pH 3.0 with TEA. Samples were run for 10 min at 1 mL/min as described by Paudel et al., J. Pharm. Sci. 94 (2005) 1965-1975). One hundred microliters of sample was injected onto the column for both Naltrexone and Naltrexol. Samples were analyzed within the linear range of the standard curves.
The drugs were extracted from the buffer samples by solid phase extraction (30mg 1 cc Oasis® HLB, Waters Corp., Milford, Mass.) as described by Vaddi et al., Pharm. Res. 22 (2005) 758-765.
Before extracting the aqueous drug samples (5 mL), the cartridge was conditioned with 1 mL of methanol and 1 mL of nanopure water. After sample loading, the cartridge was washed with 1 mL of 5% methanol and the drug was eluted with ACN and analyzed by HPLC. A similar extraction method was employed for Naltrexol, except 2 mL of methanol was used in conditioning and 1 mL of nanopure water was also used to further wash the samples after being loaded onto the cartridge. The Naltrexol was eluted with 2 mL of isopropanol and finally with 1 mL ACN. Naltrexol samples were evaporated under nitrogen in a water bath maintained at 37° C. The samples were then reconstituted with 1 mL of ACN for HPLC analysis. Highly concentrated samples of Naltrexone and Naltrexol were further diluted 10 times in ACN.
The data obtained from the diffusion experiments were plotted as the cumulative amount of drug collected in the receiver compartment as a function of time.

For data set [3] the following is noted: human skin, passive diffusion without MN (Paudel et al.); cited from earlier work.
Data set [4] in a line: In vitro skin diffusion study, flow-through diffusion cell, human skin. It counts as in vitro ADME.
Setting [5] is: No MN GP skin, listed as Naltrexone base.

Converted amounts (≈) assume the structure as drawn.

As a reminder, the solubility is the dissolved amount per volume that the medium holds. In the case of `O=C1CC[C@@]2(O)[C@H]3Cc4ccc(O)c5c4[C@@]2(CCN3CC2CC2)[C@H]1O5` [NTX Base, Naltrexone], the solubility at 24 h in data set [1] (3:1 PG:Hanks' buffer, 32 °C, aqueous with cosolvent or surfactant or cyclodextrin, thermodynamic from solid, Eq. 2, read-out: Solubility S used for theoretical dosing) was 300 mg/mL (≈ 879 mM). In addition, the “Solubility in 3:1 PG:Hanks Buffer” value in data set [1] (32° C., 24 h, listed as Naltrexone base) is 43.6 mM (≈ 14.9 mg/mL). For the same compound, the Lag time in data set [2] (MN GP skin) came out at 18.91 ± 4.49 h; in data set [2] (MN GP skin, listed as Naltrexone base), 18.91 ± 4.49 h; in data set [2] (No MN GP skin), 21.22 ± 3.91 h; in data set [2] (setting [5]) it was 21.22 ± 3.91 h. Moreover, the “NTX Flux” value turned out to be 11.80 ± 5.02 nmol/cm^2/h in data set [2] (MN GP skin, 3:1 PG:Hanks' buffer); 11.80±5.02 nmol/cm^2/h in data set [2] (MN GP skin, 3:1 PG:Hanks' buffer, listed as Naltrexone base); 9.94 ± 2.75 nmol/cm^2/h in data set [2] (No MN GP skin); 9.94±2.75 nmol/cm^2/h in data set [2] (setting [5]). Besides, in data set [3], the Permeability is 0.000108 cm/h. Besides, in data set [4] (10 cm^2 patch, passive diffusion without MN, at solubility limit), the Maximum daily dose amounted to 0.4 mg. The Papp at 48 h in data set [4] (human, pH 7.4, microneedle-treated human skin, read-out: Permeability Kp (estimated) (converted)) is 0.0194 ×10⁻⁶ cm/s.
